One data set has as its target T1, dopamine D2 receptor (Rattus norvegicus, UniProt P61169).
T1 construct: A membrane fraction obtained from rat corpus striatum was prepared as a membrane fraction of a dopamine D2 receptor; from tissue; host or cells: rat corpus striatum membrane fraction
Nature of the data set: biochemical. The format is binding.

A further data set concerns Mice. The conditions noted are these: mouse, in vivo, ip.
Another data set has as its system Sprague-Dawley rats. Conditions: rat, in vivo.
For the next data set, the system named is mouse. Nature of the data set: Anti-dopamine action against apomorphine-induced climbing behavior. The format is in vivo. The conditions noted are these: for Wall climbing behavior: apomorphine (2mg/kg, s.c.) + test substance; for ED50: sc, apomorphine 2mg/kg s.c. 10 minutes after test drug, climbing measured from 20 minutes after apomorphine for 1 minute, read-out: ED50 value regarding anti-dopamine action. The source says:
The term "a compound having dopamine D2 receptor antagonist activity" is used herein to mean a compound showing a binding affinity in a D2 receptor membrane binding test, and also showing inhibiting effect to apomorphine-induced climbing behavior.
The administration of dopamine receptor agonists, apomorphine induces a continual climbing behavior in mice. A test for competitive action against this effect is generally used as a method for detecting the dopamine receptor antagonist. A mouse was put into a cylindrical wire gauze (10 cm diameter × 14cm height) and allowed to habituate itself with the circumstances for about 1 hour. Apomorphine (2mg/kg, s.c.) was administered to the mouse at 10 minutes after the administration of the test drug, and from 20 minutes after the administration of apomorphine, its climbing behavior (which means the period during which all four legs of the mouse have left from the ground) was measured for 1 minute. Furthermore, a sigmoid curve was determined from dose response by a method of least squares, and ED50 value was calculated.

The test system of another data set is ddY male mice. Nature of the data set: animal or person. The format is in vivo. Conditions: Mus musculus, ip, 0.5 h, read-out: ED50 value regarding analgetic effect.

Experimental findings from patent EP1142587A1 (priority 1998, dated 2000) are described below.

T1 sequence (P61169 whole entry): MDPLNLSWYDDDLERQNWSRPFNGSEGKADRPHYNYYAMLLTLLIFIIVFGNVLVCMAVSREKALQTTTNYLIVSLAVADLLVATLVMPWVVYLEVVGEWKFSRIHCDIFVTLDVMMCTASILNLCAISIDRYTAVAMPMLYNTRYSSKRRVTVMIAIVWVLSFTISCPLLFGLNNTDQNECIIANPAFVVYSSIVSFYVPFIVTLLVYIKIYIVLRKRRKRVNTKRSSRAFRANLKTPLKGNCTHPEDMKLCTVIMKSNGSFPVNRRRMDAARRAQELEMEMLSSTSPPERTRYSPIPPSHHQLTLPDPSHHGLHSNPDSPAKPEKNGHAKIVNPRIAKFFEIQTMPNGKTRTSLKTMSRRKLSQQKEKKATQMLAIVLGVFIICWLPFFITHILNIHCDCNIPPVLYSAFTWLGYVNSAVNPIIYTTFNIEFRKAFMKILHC

The term Ki denotes a measure of affinity in units of concentration, obtained from inhibition or displacement. Low readings indicate a stronger hold on the target, high ones a looser hold on the target. On dopamine D2 receptor, `N=C1OC2(CCN(Cc3ccc(Cl)nc3)CC2)c2c1ccc1ccccc21` [Example 1, 1'-(6-chloro-3-pyridyl)methyl(benzo[g]1,3-dihydroisobenzofuran-1-spiro-4'-piperidine)-3-imine] had a Ki of 230 nM.
On the same count and under the same terms, the value for `O=C1OC2(CCN(Cc3ccc(Cl)nc3)CC2)c2c1ccc1ccccc21` [Example 2, 1'-(6-chloro-3-pyridyl)methyl(benzo[g]1,3-dihydroisobenzofuran-1-spiro-4'-piperidine)-3-on] was 532 nM.
On the same count and under the same terms, as for `O=C1OC2(CCN(Cc3ccc(Cl)nc3)CC2)c2cc3ccccc3cc21` [Example 3, 1'-(6-chloro-3-pyridyl)methyl(benzo[f]1,3-dihydroisobenzofuran-1-spiro-4'-piperidine)-3-on], the figure is 1590 nM.
The same measure, in the same setting: as for `O=C1OC2(CCN(Cc3ccccc3)CC2)c2c1ccc1ccccc21` [Example 11, 1'-benzyl(benzo[g]1,3-dihydroisobenzofuran-1-spiro-4'-piperidine)-3-on], the figure is 177 nM.
For orientation: ED50 means the midpoint of the dose-response relation. On to `COc1ccc(CN2CCC3(CC2)C(=O)NCN3c2ccccc2)cc1` [Example 14, 1'-(4-methoxybenzyl)-spiroimidazolidine-4,4'-piperidine-3-phenyl-5-on], for which the Ki on dopamine D2 receptor is 20 nM. For the same molecule, in the data set with Mice, the “effect on locomotor activity” value is on record as “no effect on locomotor activity”. Further, the “position palatability (psychological dependence / aversive effect)” value with Sprague-Dawley rats is “neither psychological dependence nor aversive effects”. In the data set with mouse, the Wall climbing behavior result is “inhibitory effect” and the 50% effective dose (ED50) was found to be 2.22 mg/kg.
As for `O=C1NCN(c2ccccc2)C12CCN(Cc1ccc(Cl)nc1)CC2` [Example 15, 1'-(6-chloro-3-pyridyl)methyl-spiroimidazolidine-4,4'-piperidine-3-phenyl-5-on], affinity at dopamine D2 receptor was put at a Ki of 3.6 nM. In the data set on Mice, the “effect on locomotor activity” value is listed as “no effect on locomotor activity”. Moreover, in the data set on mouse, the Wall climbing behavior entry is “inhibitory effect” and the 50% effective dose (ED50) stood at 1.22 mg/kg.
Turning to `Cc1ccc(CN2CCC3(CC2)C(=O)NCN3c2ccccc2)cn1` [Example 16, 1'-(6-methyl-3-pyridyl)methyl-spiroimidazolidine-4,4'-piperidine-3-phenyl-5-on], the affinity on dopamine D2 receptor corresponds to a Ki of 17 nM. The “effect on locomotor activity” value in the data set on Mice is “no effect on locomotor activity”. Moreover, the “position palatability (psychological dependence / aversive effect)” value in the data set on Sprague-Dawley rats was “neither psychological dependence nor aversive effects”. Besides, in the data set with mouse, the Wall climbing behavior result is listed as “inhibitory effect” and the 50% effective dose (ED50) was determined as 11.9 mg/kg.
Consider `O=C1NCN(c2ccccc2)C12CCN(Cc1cccnc1)CC2` [Example 17, 1'-(3-pyridyl)methyl-spiroimidazolidine-4,4'-piperidine-3-phenyl-5-on], for which the affinity at dopamine D2 receptor corresponds to a Ki of 457 nM. Besides, in the data set with Mice, the “effect on locomotor activity” value is recorded as “no effect on locomotor activity”.
As to `O=C1NCN(c2ccccc2)C12CCN(Cc1ccc(Br)cc1)CC2` [Example 18, 1'-(4-bromobenzyl)-spiroimidazolidine-4,4'-piperidine-3-phenyl-5-on], the affinity at dopamine D2 receptor, expressed as Ki, was 5.7 nM. In the data set on Mice, the “effect on locomotor activity” value is “no effect on locomotor activity”. In the data set with mouse, the Wall climbing behavior result was “inhibitory effect” and the median effective dose (ED50) is 1.05 mg/kg.
The like results for `Cc1ccc(CN2CCC3(CC2)C(=O)NCN3c2ccccc2)cc1` [Example 23, 1'-(4-methylbenzyl)-spiroimidazolidine-4,4'-piperidine-3-phenyl-5-on] were, in that order, 52 nM, “no effect on locomotor activity”, “inhibitory effect” and 9.5 mg/kg.
In the case of `CN1CC[C@]23c4c5ccc(O)c4O[C@H]2[C@@H](O)C=C[C@H]3[C@H]1C5` [Morphine, reference compound], the “effect on locomotor activity” value with Mice was “strong locomotor activity promoting effect”. Moreover, the “position palatability (psychological dependence / aversive effect)” value with Sprague-Dawley rats is reported as “strong rewarding effect”. Besides, the ED50 in the data set on ddY male mice is 13.7 mg/kg.
`O=C1OC2(CCN(Cc3ccccc3)CC2)c2ccccc21` [Reference example 15, 1'-benzyl-spiro[benzodihydrofuran-1(3H),4'-piperidine)-3-on, reference compound] had a Ki on dopamine D2 receptor above 1000 nM.
